Results reported in article PMC6361133, “A chemical-genetics approach to study the role of atypical Protein Kinase C in Drosophila” (Development (Cambridge, England), 2019).

Biological target: atypical Protein Kinase C (aPKC), analogue-sensitive aPKC^as4 (Drosophila melanogaster, UniProt A1Z9X0, I342A/T405A)
Experiment: in vitro […]-ATP peptide kinase assay with immunoprecipitated FLAG-aPKC ([…] ATP, […] MgCl2)
Format: biochemical

Chain of atypical Protein Kinase C (aPKC), analogue-sensitive aPKC^as4 (A1Z9X0 whole entry I342A/T405A): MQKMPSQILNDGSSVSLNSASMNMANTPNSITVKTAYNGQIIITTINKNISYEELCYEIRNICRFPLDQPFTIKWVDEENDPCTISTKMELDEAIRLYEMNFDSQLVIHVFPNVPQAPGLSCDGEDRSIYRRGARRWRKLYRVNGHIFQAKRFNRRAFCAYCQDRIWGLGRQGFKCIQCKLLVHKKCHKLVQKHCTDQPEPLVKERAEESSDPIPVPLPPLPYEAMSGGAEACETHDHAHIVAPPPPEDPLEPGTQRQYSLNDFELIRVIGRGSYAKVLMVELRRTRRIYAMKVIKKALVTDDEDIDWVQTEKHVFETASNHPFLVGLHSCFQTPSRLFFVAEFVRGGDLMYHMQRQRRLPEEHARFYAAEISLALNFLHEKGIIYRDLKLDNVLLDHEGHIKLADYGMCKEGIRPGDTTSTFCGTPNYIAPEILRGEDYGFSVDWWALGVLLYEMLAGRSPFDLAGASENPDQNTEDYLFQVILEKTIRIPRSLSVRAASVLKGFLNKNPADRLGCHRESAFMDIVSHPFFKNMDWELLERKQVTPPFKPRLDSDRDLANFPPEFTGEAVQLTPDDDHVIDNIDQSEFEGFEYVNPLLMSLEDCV

In the case of CC(C)(C)n1nc(-c2cccc3ccccc23)c2c(N)ncnc21 [1NA-PP1], the IC50 is reported as roughly 100 nM.
